In US20230066011A1, “PYRROLOPYRIMIDINE DERIVATIVE, AND PHARMACEUTICAL COMPOSITION FOR PREVENTING OR TREATING PROTEIN KINASE-RELATED DISEASE COMPRISING SAME AS ACTIVE INGREDIENT” (VORONOI CO., LTD., priority 2019, published 2023):

Assays:
human GST-DYRK1A = molecular target: T1, human GST-DYRK1A (Homo sapiens, UniProt Q13627); test: GST-DYRK1A enzyme inhibition, ADP-Glo kinase assay; assay type: biochemical; settings: ATP 10 μM, GST-DYRK1A full length, read-out: DYRK1 IC50
T1 construct: purified human GST-DYRK1A (full length, Thermo Scientifics) enzyme; purchased Thermo Scientifics
Outline: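 Full-length human GST-DYRK1A (10 ng) with 10 μM ATP and specific substrate in 40 mM Tris-HCl pH 7.4, 20 mM MgCl2, 0.5 mg/mL BSA, 50 μM DTT, 1 h at 25 °C. ADP formation read by ADP-Glo luminescence relative to solvent control; IC50 from three data sets.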

human GST-CLK1 = molecular target: T2, human GST-CLK1 (Homo sapiens, UniProt P49759); test: GST-CLK1 enzyme inhibition, ADP-Glo kinase assay; assay type: biochemical; settings: ATP 10 μM, GST-CLK1 129-end
T2 construct: purified human GST-CLK1 (129-end, SignalChem) enzyme; purchased SignalChem
T2 sequence (P49759 129-484 limits assumed): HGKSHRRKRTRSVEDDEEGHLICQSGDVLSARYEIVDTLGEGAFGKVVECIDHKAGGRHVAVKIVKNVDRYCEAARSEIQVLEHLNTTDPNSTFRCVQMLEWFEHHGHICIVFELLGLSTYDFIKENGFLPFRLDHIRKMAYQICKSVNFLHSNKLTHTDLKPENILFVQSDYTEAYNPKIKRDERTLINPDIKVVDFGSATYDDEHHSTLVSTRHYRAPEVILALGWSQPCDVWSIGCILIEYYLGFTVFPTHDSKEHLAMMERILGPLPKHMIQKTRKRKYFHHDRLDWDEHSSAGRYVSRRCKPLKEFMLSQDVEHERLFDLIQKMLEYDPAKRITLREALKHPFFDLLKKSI
Outline: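 Human GST-CLK1 (129-end, 3 ng) reacted with substrate and 10 μM ATP for 1 h at 25° C in 40 mM Tris-HCl pH 7.4, 20 mM MgCl2, 0.5 mg/mL BSA, 50 μM DTT. ADP-Glo luminescence was normalised to solvent control; IC50 (nM) from 3 data sets.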

MDA-MB-231 cell line = test: Inhibition of proliferation of MDA-MB-231 cancer cells (Cell Titer-Glo); assay type: cell-based; settings: Homo sapiens, 72 hours
Description: (§1) To evaluate an inhibitory effect on the proliferation of cancer cells, each of an MDA-MB-231 cell line (Korean Cell Line Bank #30026) and an MDA-MB-468 cell line as triple-negative breast cancer cell lines, and SHP-77 (ATCC #CRL-2195) as a small-cell lung cancer cell line was cultured in DMEM (HyClone #SH30243) or an RPMI medium (HyClone #SH3027.01) to analyze a cell growth rate. More specifically, a cell line was plated on a 96-well flat bottom plate (Corning #3903) at a density of 2,000 cells/100 μL per well, and then treated with 11 concentrations of the Example compound, a solution of which was diluted 3-fold so that a final concentration of the compound was 10.000000, 3.333333, 1.111111, 0.370370, 0.123457, 0.041152, 0.013717, 0.004572, 0.001524, 0.000508, and 0.000169 μM. After 72 hours, each of the culture media was treated with 100 μL of Cell Titer-Glo (Promega G7573), and then cultured at room temperature for 10 minutes. Then, a degree of luminescence was measured using a microplate reader. A GI50 value was calculated from the measured degree of luminescence using Prism (Version 8.2 GraphPad) software.

SHP-77 = test: Inhibition of proliferation of SHP-77 cancer cells (Cell Titer-Glo); assay type: cell-based; settings: Homo sapiens, SHP77, 72 hours
Description: as §1

LRRK2 (G2019S) = LRRK2 (G2019S) (Homo sapiens, UniProt Q5S007, G2019S); test: LRRK2 G2019S enzyme inhibition, ADP-Glo kinase assay; assay type: biochemical; parameters: purchased SignalChem L10-12GG; settings: ATP 25 μM
Chain of LRRK2 (G2019S) (Q5S007 970-2527 G2019S limits assumed): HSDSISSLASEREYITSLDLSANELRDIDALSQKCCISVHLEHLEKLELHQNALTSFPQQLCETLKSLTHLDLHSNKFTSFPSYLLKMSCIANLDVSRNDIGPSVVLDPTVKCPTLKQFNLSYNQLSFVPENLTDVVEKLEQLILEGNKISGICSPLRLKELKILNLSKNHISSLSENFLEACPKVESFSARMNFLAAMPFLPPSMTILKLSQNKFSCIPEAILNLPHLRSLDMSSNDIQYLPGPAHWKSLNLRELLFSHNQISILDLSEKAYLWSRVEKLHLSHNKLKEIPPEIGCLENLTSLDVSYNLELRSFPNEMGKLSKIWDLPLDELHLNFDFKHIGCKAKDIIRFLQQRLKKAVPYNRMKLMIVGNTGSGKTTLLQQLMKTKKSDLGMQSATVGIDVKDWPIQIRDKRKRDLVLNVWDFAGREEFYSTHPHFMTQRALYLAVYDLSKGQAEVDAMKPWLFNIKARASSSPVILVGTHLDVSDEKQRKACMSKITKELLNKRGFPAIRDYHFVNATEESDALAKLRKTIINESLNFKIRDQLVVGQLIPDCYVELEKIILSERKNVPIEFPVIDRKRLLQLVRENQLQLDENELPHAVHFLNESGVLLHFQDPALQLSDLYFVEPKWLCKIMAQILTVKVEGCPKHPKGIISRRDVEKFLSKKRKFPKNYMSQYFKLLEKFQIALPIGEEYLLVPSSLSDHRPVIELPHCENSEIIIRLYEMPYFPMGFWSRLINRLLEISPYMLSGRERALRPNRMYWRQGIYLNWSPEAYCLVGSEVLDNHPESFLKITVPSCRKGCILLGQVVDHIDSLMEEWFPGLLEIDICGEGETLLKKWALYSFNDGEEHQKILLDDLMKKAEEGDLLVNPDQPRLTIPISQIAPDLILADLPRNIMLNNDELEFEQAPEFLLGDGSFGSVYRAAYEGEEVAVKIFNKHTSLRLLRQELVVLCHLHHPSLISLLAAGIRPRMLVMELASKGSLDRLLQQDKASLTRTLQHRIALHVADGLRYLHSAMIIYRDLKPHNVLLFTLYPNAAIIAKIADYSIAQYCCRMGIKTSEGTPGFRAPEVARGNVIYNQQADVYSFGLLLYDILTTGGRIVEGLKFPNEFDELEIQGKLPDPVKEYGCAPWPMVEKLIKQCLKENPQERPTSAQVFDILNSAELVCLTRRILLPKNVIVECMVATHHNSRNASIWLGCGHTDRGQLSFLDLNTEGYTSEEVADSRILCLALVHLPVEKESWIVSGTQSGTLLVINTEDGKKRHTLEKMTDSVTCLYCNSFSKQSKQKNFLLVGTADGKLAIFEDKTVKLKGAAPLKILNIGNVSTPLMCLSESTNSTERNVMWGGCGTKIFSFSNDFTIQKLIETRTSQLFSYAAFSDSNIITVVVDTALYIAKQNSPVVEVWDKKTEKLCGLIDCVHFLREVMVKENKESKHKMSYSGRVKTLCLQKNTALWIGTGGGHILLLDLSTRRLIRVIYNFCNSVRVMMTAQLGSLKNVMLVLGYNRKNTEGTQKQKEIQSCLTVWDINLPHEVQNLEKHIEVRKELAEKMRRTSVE
Outline: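 Purified human LRRK2 G2019S (16 ng) with 25 μM ATP and 0.2 μg substrate, 2 h at 25° C. in Tris-HCl pH 7.4, MgCl2, BSA, DTT buffer; compounds at 12 final concentrations, 50 μM down to 0.000001024 μM. ADP-Glo luminescence versus solvent control gave IC50.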

MDA-MB-468 cell line = test: Inhibition of proliferation of MDA-MB-468 cancer cells (Cell Titer-Glo); assay type: cell-based; settings: Homo sapiens, MDA-MB-468, 72 hours
Description: as §1

LRRK2 = LRRK2 (Homo sapiens, UniProt Q5S007); test: LRRK2 enzyme inhibition, ADP-Glo kinase assay; assay type: biochemical; parameters: purchased Invitrogen PR8604B; settings: ATP 10 μM
Chain of LRRK2 (Q5S007 970-2527 limits assumed): as the sequence (Q5S007 970-2527 G2019S limits assumed) above, with S1050G counted along it
Outline: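 Purified human LRRK2 (25 ng) with 10 μM ATP and 0.2 μg substrate in 40 mM Tris-HCl pH 7.4, 20 mM MgCl2, 0.5 mg/mL BSA, 50 μM DTT, 2 h at 25° C. ADP-Glo luminescence; 12-point compound series from 50 μM final; IC50 relative to solvent control.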

| IC50 (human GST-DYRK1A) | IC50 (human GST-CLK1) | GI50 (MDA-MB-231 cell line) | GI50 (SHP-77) | IC50 (LRRK2 (G2019S)) | GI50 (MDA-MB-468 cell line) | IC50 (LRRK2) | SMILES |
| --- | --- | --- | --- | --- | --- | --- | --- |
| 301 to 1000 nM | 301 to 1000 nM | < 50 nM | < 50 nM | < 100 nM | – | – | COc1cc(S(=O)(=O)N2CCOCC2)ccc1Nc1nc(NCC(C)C)c2c(C#N)c[nH]c2n1 [Example 65, 4-(isobutylamino)-2-((2-methoxy-4-(morpholinosulfonyl)phenyl)amino)-7H-pyrrolo[2,3-d]pyrimidine-5-carbonitrile] |
| – | – | < 50 nM | < 50 nM | – | – | – | COc1cc(S(=O)(=O)N2CCOCC2)ccc1Nc1nc(NC(C)C)c2c(C#N)c[nH]c2n1 [Example 66, 4-(isopropylamino)-2-((2-methoxy-4-(morpholinosulfonyl)phenyl)amino)-7H-pyrrolo[2,3-d]pyrimidine-5-carbonitrile] |
| 301 to 1000 nM | 301 to 1000 nM | 101 to 300 nM | 101 to 300 nM | – | – | – | CC[C@H](C)Nc1nc(Nc2ccc(S(=O)(=O)N3CCOCC3)cc2OC)nc2[nH]cc(C#N)c12 [Example 68, (S)-4-(sec-butylamino)-2-((2-methoxy-4-(morpholinosulfonyl)phenyl)amino)-7H-pyrrolo[2,3-d]pyrimidine-5-carbonitrile] |
| 301 to 1000 nM | 301 to 1000 nM | 101 to 300 nM | 101 to 300 nM | – | – | – | COc1cc(S(=O)(=O)N2CCOCC2)ccc1Nc1nc(N[C@@H]2CCOC2)c2c(C#N)c[nH]c2n1 [Example 74, (R)-2-((2-methoxy-4-(morpholinosulfonyl)phenyl)amino)-4-((tetrahydrofuran-3-yl)amino)-7H-pyrrolo[2,3-d]pyrimidine-5-carbonitrile] |
| 301 to 1000 nM | 301 to 1000 nM | 51 to 100 nM | < 50 nM | – | – | – | COc1cc(S(=O)(=O)N2CCOCC2)ccc1Nc1nc(NCC2CCC2)c2c(C#N)c[nH]c2n1 [Example 79, 4-((cyclobutylmethyl)amino)-2-((2-methoxy-4-(morpholinosulfonyl)phenyl)amino)-7H-pyrrolo[2,3-d]pyrimidine-5-carbonitrile] |
| 301 to 1000 nM | 301 to 1000 nM | < 50 nM | < 50 nM | – | – | – | CC[C@@H](C)Nc1nc(Nc2ccc(S(=O)(=O)N3CCC(N4CCOCC4)CC3)cc2OC)nc2[nH]cc(C#N)c12 [Example 86, (R)-4-(sec-butylamino)-2-((2-methoxy-4-((4-morpholinopiperidin-1-yl)sulfonyl)phenyl)amino)-7H-pyrrolo[2,3-d]pyrimidine-5-carbonitrile] |
| 101 to 300 nM | 301 to 1000 nM | 301 to 1000 nM | 301 to 1000 nM | – | – | – | COc1cc(S(=O)(=O)N2CCOCC2)ccc1Nc1nc(NCC(C)C)c2c(C(F)(F)F)c[nH]c2n1 [Example 192, N^4-isobutyl-N^2-(2-methoxy-4-(morpholinosulfonyl)phenyl)-5-(trifluoromethyl)-7H-pyrrolo[2,3-d]pyrimidine-2,4-diamine] |
| 301 to 1000 nM | 301 to 1000 nM | 301 to 1000 nM | 301 to 1000 nM | – | – | – | COc1cc(S(=O)(=O)N2CCOCC2)ccc1Nc1nc(NCC2CCCC2)c2c(C(F)(F)F)c[nH]c2n1 [Example 194, N^4-(cyclopentylmethyl)-N^2-(2-methoxy-4-(morpholinosulfonyl)phenyl)-5-(trifluoromethyl)-7H-pyrrolo[2,3-d]pyrimidine-2,4-diamine] |
| 301 to 1000 nM | 301 to 1000 nM | 301 to 1000 nM | 301 to 1000 nM | – | – | – | COc1cc(S(=O)(=O)N2CCC(N3CCOCC3)CC2)ccc1Nc1nc(NCC2CCCC2)c2c(C(F)(F)F)c[nH]c2n1 [Example 195, N^4-(cyclopentylmethyl)-N^2-(2-methoxy-4-((4-morpholinopiperidin-1-yl)sulfonyl)phenyl)-5-(trifluoromethyl)-7H-pyrrolo[2,3-d]pyrimidine-2,4-diamine] |
| 301 to 1000 nM | 301 to 1000 nM | 301 to 1000 nM | 301 to 1000 nM | – | – | – | COc1cc(S(=O)(=O)N2CCOCC2)ccc1Nc1nc(NCC2CCC2)c2c(C(F)(F)F)c[nH]c2n1 [Example 200, N^4-(cyclobutylmethyl)-N^2-(2-methoxy-4-(morpholinosulfonyl)phenyl)-5-(trifluoromethyl)-7H-pyrrolo[2,3-d]pyrimidine-2,4-diamine] |
| 301 to 1000 nM | 101 to 300 nM | 301 to 1000 nM | 301 to 1000 nM | – | – | – | COc1cc(S(=O)(=O)N2CCOCC2)ccc1Nc1nc(NCC2CC2)c2c(C(F)(F)F)c[nH]c2n1 [Example 203, N^4-(cyclopropylmethyl)-N^2-(2-methoxy-4-(morpholinosulfonyl)phenyl)-5-(trifluoromethyl)-7H-pyrrolo[2,3-d]pyrimidine-2,4-diamine] |
| 301 to 1000 nM | 301 to 1000 nM | 301 to 1000 nM | 301 to 1000 nM | – | – | – | CCCCNc1nc(Nc2ccc(S(=O)(=O)N3CCOCC3)cc2OC)nc2[nH]cc(C(F)(F)F)c12 [Example 207, N^4-butyl-N^2-(2-methoxy-4-(morpholinosulfonyl)phenyl)-5-(trifluoromethyl)-7H-pyrrolo[2,3-d]pyrimidine-2,4-diamine] |
| 301 to 1000 nM | 301 to 1000 nM | 301 to 1000 nM | – | < 100 nM | 301 to 1000 nM | < 100 nM | COCCNc1nc(Nc2ccc(S(=O)(=O)N3CCOCC3)cc2OC)nc2[nH]cc(C(F)(F)F)c12 [Example 373, N^2-(2-methoxy-4-(morpholino-sulfonyl)phenyl)-N^4-(2-methoxyethyl)-5-(trifluoromethyl)-7H-pyrrolo[2,3-d]pyrimidine-2,4-diamine] |
| 301 to 1000 nM | 301 to 1000 nM | 301 to 1000 nM | – | < 100 nM | 301 to 1000 nM | < 100 nM | COc1cc(S(=O)(=O)N2CCOCC2)ccc1Nc1nc(NC2CC2)c2c(C(F)(F)F)c[nH]c2n1 [Example 374, N^4-cyclopropyl-N^2-(2-methoxy-4-(morpholino-sulfonyl)phenyl)-5-(trifluoromethyl)-7H-pyrrolo[2,3-d]pyrimidine-2,4-diamine] |
| 301 to 1000 nM | 101 to 300 nM | 101 to 300 nM | – | < 100 nM | 301 to 1000 nM | < 100 nM | COc1cc(S(=O)(=O)N2CCC(N3CCOCC3)CC2)ccc1Nc1nc(NC2CC2)c2c(C(F)(F)F)c[nH]c2n1 [Example 375, N^4-cyclopropyl-N^2-(2-methoxy-4-((4-morpholino-piperidin-1-yl)sulfonyl)phenyl)-5-(trifluoromethyl)-7H-pyrrolo[2,3-d]pyrimidine-2,4-diamine] |
| 301 to 1000 nM | < 100 nM | 301 to 1000 nM | – | 101 to 300 nM | 301 to 1000 nM | 101 to 300 nM | COc1cc(S(=O)(=O)N2CCOCC2)ccc1Nc1nc(NC2CCC2)c2c(C(F)(F)F)c[nH]c2n1 [Example 377, N^4-cyclobuty-N2-(2-methoxy-4-(morpholino-sulfonyl)phenyl)-5-(trifluoromethyl)-7H-pyrrolo[2,3-d]pyrimidine-2,4-diamine] |
| 301 to 1000 nM | 301 to 1000 nM | 301 to 1000 nM | – | 101 to 300 nM | 301 to 1000 nM | < 100 nM | CCNc1nc(Nc2ccc(S(=O)(=O)N3CCOCC3)c3c2OCCO3)nc2[nH]cc(C(F)(F)F)c12 [Example 432, N^4-ethyl-N^2-(8-(morpholino-sulfonyl)-2,3-dihydro-benzo[b][1,4]dioxin-5-yl)-5-(trifluoromethyl)-7H-pyrrolo[2,3-d]pyrimidine-2,4-diamine] |
